Data as given in the supplement of paper PMC13380429.

Experiments:
Conditions in all cases: 72 h
Vero E6 [1] = experiment: drug sensitivity score (DSS) for viability; higher = more toxic; extreme values may be limits of the assay
HepG2 [2] = experiment: as above
Calu-3 [3] = experiment: as above
Caco-2 [4] = experiment: as above
U2OS [5] = experiment: as above
Calu-3 [6] = experiment: relative viability EC50 (midpoint between 100% and the lowest measured viability); higher = less toxic
Caco-2 [7] = experiment: as above
U2OS [8] = experiment: as above
Vero E6 [9] = experiment: cell viability relative to DMSO; higher = less toxic
HepG2 [10] = experiment: as above
Calu-3 [11] = experiment: as above
Caco-2 [12] = experiment: as above
U2OS [13] = experiment: as above
HepG2 [14] = experiment: relative viability EC50 (midpoint between 100% and the lowest measured viability); higher = less toxic

| Structure (SMILES) | drug sensitivity score (Vero E6 [1]) | drug sensitivity score (HepG2 [2]) | drug sensitivity score (Calu-3 [3]) | drug sensitivity score (Caco-2 [4]) | drug sensitivity score (U2OS [5]) | relative viability EC50 (Calu-3 [6]) [nM] | relative viability EC50 (Caco-2 [7]) [µM] | relative viability EC50 (U2OS [8]) [µM] | cell viability (Vero E6 [9]; 1 nM) [%] | cell viability (Vero E6 [9]; 10 nM) [%] | cell viability (Vero E6 [9]; 100 nM) [%] | cell viability (Vero E6 [9]; 1000 nM) [%] | cell viability (Vero E6 [9]; 10000 nM) [%] | cell viability (HepG2 [10]; 1 nM) [%] | cell viability (HepG2 [10]; 10 nM) [%] | cell viability (HepG2 [10]; 100 nM) [%] | cell viability (HepG2 [10]; 1000 nM) [%] | cell viability (HepG2 [10]; 10000 nM) [%] | cell viability (Calu-3 [11]; 1 nM) [%] | cell viability (Calu-3 [11]; 10 nM) [%] | cell viability (Calu-3 [11]; 100 nM) [%] | cell viability (Calu-3 [11]; 1000 nM) [%] | cell viability (Calu-3 [11]; 10000 nM) [%] | cell viability (Caco-2 [12]; 1 nM) [%] | cell viability (Caco-2 [12]; 10 nM) [%] | cell viability (Caco-2 [12]; 100 nM) [%] | cell viability (Caco-2 [12]; 1000 nM) [%] | cell viability (Caco-2 [12]; 10000 nM) [%] | cell viability (U2OS [13]; 1 nM) [%] | cell viability (U2OS [13]; 10 nM) [%] | cell viability (U2OS [13]; 100 nM) [%] | cell viability (U2OS [13]; 1000 nM) [%] | cell viability (U2OS [13]; 10000 nM) [%] | relative viability EC50 (HepG2 [14]) [nM] |
| --- | --- | --- | --- | --- | --- | --- | --- | --- | --- | --- | --- | --- | --- | --- | --- | --- | --- | --- | --- | --- | --- | --- | --- | --- | --- | --- | --- | --- | --- | --- | --- | --- | --- | --- |
| COc1ccc(CCc2nc3cc(-c4c(C)noc4C)ccc3n2C[C@H](C)N2CCOCC2)cc1Cl [SGC-CBP30] | 3.3 | 2.1 | 1.7 | 2.2 | 0.8 | > 10000 | > 10 | > 10 | 89.8 | 97.6 | 89.5 | 94.5 | 53.9 | 90.4 | 105 | 93.6 | 94.9 | 70.4 | 99.4 | 102 | 88.3 | 90.9 | 86.4 | 93.5 | 97.2 | 106 | 87.9 | 76.8 | 94.7 | 95.5 | 102 | 98.7 | 79.3 | – |
| Cc1c(C(=O)N2CCOc3ccc(-c4ccc(N)nc4)cc3C2)ccc(S(C)(=O)=O)c1F [XL388] | 2.3 | 4.6 | 7.7 | 6.1 | 2.8 | 1040 | 1.2 | – | 110 | 108 | 103 | 95.6 | 66.7 | 110 | 115 | 99.5 | 92.5 | 39 | 102 | 104 | 103 | 68.5 | 33.7 | 115 | 105 | 103 | 77.8 | 43 | 102 | 101 | 102 | 98.3 | 50.2 | 2160 |
| CC(=O)Nc1ccc(CC(=O)O)cc1 [actarit] | – | – | 0 | 0 | 0 | > 10000 | > 10 | > 10 | – | – | – | – | – | – | – | – | – | – | 105 | 104 | 117 | 107 | 97.8 | 96 | 94 | 93.7 | 99.9 | 96 | 98.1 | 101 | 94.8 | 103 | 96.4 | – |
| Cc1c(N)nc([C@H](CC(N)=O)NC[C@H](N)C(N)=O)nc1C(=O)N[C@H](C(=O)N[C@H](C)[C@@H](O)[C@H](C)C(=O)N[C@H](C(=O)NCCc1nc(-c2nc(C(=O)NCCC[S+](C)C)cs2)cs1)[C@@H](C)O)[C@@H](OC1OC(CO)C(O)C(O)C1OC1OC(CO)C(O)C(OC(N)=O)C1O)c1cnc[nH]1 (some centres undefined) [bleomycin] | 4.8 | 6.8 | 6.9 | 1.7 | 3.8 | 536 | > 10 | – | 97.4 | 103 | 97.5 | 75.5 | 60 | 93.4 | 93.7 | 95.8 | 66.2 | 50.8 | 102 | 91.8 | 94.7 | 66.2 | 49.8 | 98.9 | 93.8 | 92.3 | 89.5 | 76.8 | 97 | 101 | 93.5 | 88.4 | 55.6 | – |
